Experimental findings from ChEMBL document CHEMBL1201862, “PubChem BioAssay data set” (2004) are described below.

The structures appear in SMILES notation. The source made the active and inactive calls.

In one assay the target is X-box-binding protein 1 (Homo sapiens, UniProt P17861). Type of assay: functional, Cricetulus griseus.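 Note: confirmatory dose-response counter-screen serving a CHOP assay.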
Assay [1] addresses T1, Kappa-type opioid receptor (Homo sapiens, UniProt P41145). Put plainly: SAR analysis of small molecule antagonists of the kappa opioid receptor via a luminescent beta-arrestin assay - Set 4. [Related pubchem assays (depositor defined):AID1777, AID1778, AID1785, AID1786, AID1966, AID2133, AID2136, AID2285]. Type of assay: functional.
The target of assay [2] is T1, Kappa-type opioid receptor. Put plainly: SAR analysis of Antagonists of the Kappa Opioid Receptor (KOR) using an Image-Based Assay - Set 4. [Related pubchem assays (depositor defined):AID1777, AID1785]. It counts as functional.
Assay [3] addresses Delta-type opioid receptor (Homo sapiens, UniProt P41143). Nature of the assay: SAR Analysis of Antagonists of the DOR Receptor using an Image-Based Assay - Set 3. [Related pubchem assays (depositor defined):AID1777, AID1785]. It counts as functional.
The target in another assay is Mu-type opioid receptor (Homo sapiens, UniProt P35372). Nature of the assay: SAR Analysis of Antagonists of the MOR Receptor using an Image-Based Assay - Set 3. [Related pubchem assays (depositor defined):AID1777, AID1785, AID1786, AID1966, AID2133, AID2136, AID2284, AID2285, AID2420]. Type of assay: functional.
The target in assay [4] is Voltage-dependent T-type calcium channel subunit alpha-1H (Homo sapiens, UniProt O95180). Nature of the assay: human CACNA1H calcium influx blockade – cell-based, synthetic library set 1, calcium flux (AID 493022). It counts as functional.
The target in assay [5] is T2, Tyrosine-protein phosphatase non-receptor type 7 (Homo sapiens, UniProt P35236).
T2 sequence (P35236 whole entry): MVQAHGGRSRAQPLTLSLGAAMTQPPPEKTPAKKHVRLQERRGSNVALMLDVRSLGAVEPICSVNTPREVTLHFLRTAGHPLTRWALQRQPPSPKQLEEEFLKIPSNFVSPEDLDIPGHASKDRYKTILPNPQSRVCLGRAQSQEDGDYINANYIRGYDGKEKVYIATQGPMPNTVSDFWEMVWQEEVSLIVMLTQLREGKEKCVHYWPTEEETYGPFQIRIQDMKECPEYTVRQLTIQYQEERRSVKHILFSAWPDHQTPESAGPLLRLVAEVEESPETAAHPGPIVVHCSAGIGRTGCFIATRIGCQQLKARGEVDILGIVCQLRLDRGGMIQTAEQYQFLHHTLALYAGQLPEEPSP
It counts as functional.

The target in assay [6] is T3, Tyrosine-protein phosphatase non-receptor type 22 (Homo sapiens, UniProt Q9Y2R2). It counts as functional.
Assay [7] concerns the target T3, Tyrosine-protein phosphatase non-receptor type 22. Type of assay: functional. This is another data set of the same source.
The target in the next assay is Beta-galactosidase (Escherichia coli, UniProt Q8VNN2). Nature of the assay: detection-enzyme interference by beta-gal modulators – biochemical, E. coli enzyme, set 3, artefact control for CCR6 antagonist project, dose response (AID 504712). It counts as functional.
In assay [8] the target is Induced myeloid leukemia cell differentiation protein Mcl-1 (Homo sapiens, UniProt Q07820). It counts as functional.
Assay [9] addresses Cystic fibrosis transmembrane conductance regulator/Golgi-associated PDZ and coiled-coil motif-containing protein (Homo sapiens, UniProt P13569+Q9HD26). Nature of the assay: potency against CAL PDZ-peptide interaction – biochemical, fluorescence polarization, Cerulean-tagged CAL PDZ, cherry-picks, dose response (AID 504773).
For the next assay, the system named is INS1. Put plainly: INS-1E survival protection against cytokine death – cell-based, luminescence, retest, dose response (AID 449756).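 Note: cell death triggered by IL-1 beta plus TNF-alpha plus IFN-gamma mixture; protective hits raise ATP signal compared with cytokine alone wells.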 Type of assay: functional. The settings on record: Rattus norvegicus.
Another assay concerns the target T4, Hexokinase HKDC1 (Homo sapiens, UniProt Q2TB90).
T4 sequence (Q2TB90 whole entry): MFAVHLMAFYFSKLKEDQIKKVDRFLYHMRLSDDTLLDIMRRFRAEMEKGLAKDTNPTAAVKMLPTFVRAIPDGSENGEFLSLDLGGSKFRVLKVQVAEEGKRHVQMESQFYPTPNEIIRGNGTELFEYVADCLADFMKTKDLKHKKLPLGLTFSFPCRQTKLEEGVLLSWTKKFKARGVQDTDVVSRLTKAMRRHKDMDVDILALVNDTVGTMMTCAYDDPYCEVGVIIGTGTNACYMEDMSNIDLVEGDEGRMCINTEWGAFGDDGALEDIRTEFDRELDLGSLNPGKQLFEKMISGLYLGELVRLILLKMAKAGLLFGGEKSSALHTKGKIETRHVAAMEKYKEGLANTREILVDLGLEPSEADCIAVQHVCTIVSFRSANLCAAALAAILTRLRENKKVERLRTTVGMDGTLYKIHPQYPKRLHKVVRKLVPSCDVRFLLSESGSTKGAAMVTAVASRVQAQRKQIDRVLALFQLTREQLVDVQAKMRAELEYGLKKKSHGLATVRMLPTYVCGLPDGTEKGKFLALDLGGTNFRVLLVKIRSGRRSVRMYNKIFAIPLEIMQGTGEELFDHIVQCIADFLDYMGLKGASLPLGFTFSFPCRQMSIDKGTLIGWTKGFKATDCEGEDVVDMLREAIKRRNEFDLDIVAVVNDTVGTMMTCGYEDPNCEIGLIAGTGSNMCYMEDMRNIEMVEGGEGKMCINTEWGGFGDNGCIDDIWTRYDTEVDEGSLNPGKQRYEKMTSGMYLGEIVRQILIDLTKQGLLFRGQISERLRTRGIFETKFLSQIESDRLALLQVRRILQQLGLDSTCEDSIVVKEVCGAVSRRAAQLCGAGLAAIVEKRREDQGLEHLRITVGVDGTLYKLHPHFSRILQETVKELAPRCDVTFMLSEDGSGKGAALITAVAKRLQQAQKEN
Put plainly: inhibition of HKDC1 glucose phosphorylation – biochemical, W721R variant, dose response (AID 504729). Type of assay: functional.

In assay [10] the target is Eukaryotic translation initiation factor 4E (Mus musculus, UniProt P63073). Put plainly: blockers of eIF4G binding by eIF4E – biochemical, TR-FRET, dose response (AID 855).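 Note: potency for disrupting eIF4E binding to eIF4GI seen as loss of FRET.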 Type of assay: functional.
Assay [11] concerns the target Eukaryotic translation initiation factor 4H (Homo sapiens, UniProt Q15056). Put plainly: inhibitors of translation initiation factor eIF4H – SAR follow-up (AID 435011). It counts as functional.
Assay [12] has as its target Polyadenylate-binding protein 1 (Homo sapiens, UniProt P11940). Nature of the assay: PABP inhibition in translation initiation, SAR follow-up (AID 435018). It counts as functional.
Assay [13] can be described thus: alpha-synuclein stem-loop luciferase translation blockers – H4 neuroglioma cells, luminescence, confirmation (AID 1988). It counts as functional, cell-based.
The test system of another assay is J774.A1. Put plainly: Confirmation of image-based Screening Assay for Inhibitors of Phagocytosis. [Related pubchem assays (depositor defined):AID1029, AID1643]. It counts as functional, cell-based. The conditions noted are these: Mus musculus.
Assay [14] is described as follows: luciferase reporter signal suppression in cells – H4 neuroglioma cells, luminescence, dose response (AID 1990). Type of assay: functional, cell-based.
The target in the next assay is T5, ORF 73 (Human herpesvirus 8, UniProt O40947).
T5 sequence (O40947 whole entry): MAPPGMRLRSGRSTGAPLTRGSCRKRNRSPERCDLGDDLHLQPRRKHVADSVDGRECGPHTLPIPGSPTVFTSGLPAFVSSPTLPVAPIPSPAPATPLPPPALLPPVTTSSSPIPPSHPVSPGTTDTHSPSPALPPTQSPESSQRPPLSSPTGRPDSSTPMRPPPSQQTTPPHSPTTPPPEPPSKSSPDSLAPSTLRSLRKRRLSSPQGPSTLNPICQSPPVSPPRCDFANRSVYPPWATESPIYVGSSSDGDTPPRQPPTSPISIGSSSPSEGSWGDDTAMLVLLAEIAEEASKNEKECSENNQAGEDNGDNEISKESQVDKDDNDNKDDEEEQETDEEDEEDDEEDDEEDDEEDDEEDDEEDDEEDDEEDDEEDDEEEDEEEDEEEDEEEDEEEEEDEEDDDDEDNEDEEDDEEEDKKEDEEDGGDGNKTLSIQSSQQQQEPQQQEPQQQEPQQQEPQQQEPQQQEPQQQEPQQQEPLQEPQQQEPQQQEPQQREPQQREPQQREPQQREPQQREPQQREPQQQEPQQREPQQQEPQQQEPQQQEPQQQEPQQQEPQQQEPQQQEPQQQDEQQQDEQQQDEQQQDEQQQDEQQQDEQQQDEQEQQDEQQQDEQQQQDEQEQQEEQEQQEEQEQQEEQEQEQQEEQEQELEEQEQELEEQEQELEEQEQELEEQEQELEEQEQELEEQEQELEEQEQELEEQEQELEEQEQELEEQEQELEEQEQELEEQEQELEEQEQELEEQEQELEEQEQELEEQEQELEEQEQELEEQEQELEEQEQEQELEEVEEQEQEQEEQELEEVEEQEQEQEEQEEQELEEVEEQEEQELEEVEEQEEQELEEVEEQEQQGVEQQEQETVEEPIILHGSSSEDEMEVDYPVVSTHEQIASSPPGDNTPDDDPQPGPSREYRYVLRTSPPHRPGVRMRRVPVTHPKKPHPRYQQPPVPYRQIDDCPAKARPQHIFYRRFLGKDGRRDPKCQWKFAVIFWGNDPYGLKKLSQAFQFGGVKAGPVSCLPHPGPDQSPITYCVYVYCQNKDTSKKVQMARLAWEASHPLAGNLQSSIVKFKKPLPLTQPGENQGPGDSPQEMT
Put plainly: KSHV LANA DNA-binding disruption – biochemical, fluorescence polarization, cherry-picked samples, dose response (AID 504725).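 Note: fluorescence polarization of a labeled DNA duplex reporting LANA DNA binding; potency is for inhibitors that block LANA binding to the DNA.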 Details: species or system Human gammaherpesvirus 8.

Assay [15] deals with T6, Zinc finger protein mex-5 (Caenorhabditis elegans, UniProt Q9XUB2).
T6 sequence (Q9XUB2 whole entry): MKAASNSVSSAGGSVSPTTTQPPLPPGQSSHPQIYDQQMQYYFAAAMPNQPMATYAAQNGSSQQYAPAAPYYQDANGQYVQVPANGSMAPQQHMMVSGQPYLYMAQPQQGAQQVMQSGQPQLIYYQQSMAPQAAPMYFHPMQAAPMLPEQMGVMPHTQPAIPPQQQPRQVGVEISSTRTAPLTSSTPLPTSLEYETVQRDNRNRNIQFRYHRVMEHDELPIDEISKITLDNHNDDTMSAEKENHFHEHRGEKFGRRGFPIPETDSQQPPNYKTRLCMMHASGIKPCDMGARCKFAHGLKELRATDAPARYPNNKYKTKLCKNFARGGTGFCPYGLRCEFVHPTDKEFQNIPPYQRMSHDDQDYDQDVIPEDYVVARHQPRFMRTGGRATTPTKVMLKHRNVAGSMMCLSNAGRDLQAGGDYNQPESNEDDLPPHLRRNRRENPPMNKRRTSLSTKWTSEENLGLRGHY
Nature of the assay: potency of MEX-5 RNA-binding blockers – biochemical, C. elegans, fluorescence polarization, dose response (AID 1960).

Assay [16] addresses T7, RNA-binding protein pos-1 (Caenorhabditis elegans, UniProt G5EF15).
T7 sequence (G5EF15 whole entry): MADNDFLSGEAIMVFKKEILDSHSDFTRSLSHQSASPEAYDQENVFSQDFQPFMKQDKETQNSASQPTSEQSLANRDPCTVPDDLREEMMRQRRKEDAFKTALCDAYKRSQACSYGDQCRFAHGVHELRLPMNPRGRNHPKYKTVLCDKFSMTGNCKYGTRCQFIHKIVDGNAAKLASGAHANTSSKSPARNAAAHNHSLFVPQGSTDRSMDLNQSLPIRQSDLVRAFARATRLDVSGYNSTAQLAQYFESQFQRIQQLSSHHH
Put plainly: disruptors of C. elegans POS-1 RNA interaction – biochemical, fluorescence polarization, dose response (AID 1964).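 Note: purified POS-1 fused to maltose binding protein made in E. coli; potency of compounds blocking POS-1 binding to fluorescent RNA.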

The test system of another assay is Salmon testes DNA. Put plainly: acridine orange-DNA binding displacement – biochemical, fluorescence polarization, cherry-picked samples, set 2, artefact control for KSHV LANA DNA-binding inhibitor project, dose response (AID 504727). Details: species or system Salmonidae.
A short description of assay [17]: HEK-293T cell viability reduction – luminescence, B-cell screen hits, cytotoxicity control for BCR NF-kB inhibitor project, dose response (AID 489021).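 Note: HEK-293T cells carrying an NF-kB luciferase reporter; cells exposed to compound for about 14 hours before viability readout.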 Type of assay: functional, cell-based.

T1 sequence (P41145 whole entry): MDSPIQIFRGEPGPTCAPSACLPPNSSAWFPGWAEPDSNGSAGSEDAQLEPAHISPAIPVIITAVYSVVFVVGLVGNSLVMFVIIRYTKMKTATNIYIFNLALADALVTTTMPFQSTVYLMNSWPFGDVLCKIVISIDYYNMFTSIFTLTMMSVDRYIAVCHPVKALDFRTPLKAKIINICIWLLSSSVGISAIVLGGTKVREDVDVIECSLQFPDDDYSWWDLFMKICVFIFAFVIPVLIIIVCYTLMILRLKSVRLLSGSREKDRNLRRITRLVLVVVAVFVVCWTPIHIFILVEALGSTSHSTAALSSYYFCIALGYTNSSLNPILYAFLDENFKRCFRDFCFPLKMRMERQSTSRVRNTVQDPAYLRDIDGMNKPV
T3 sequence (Q9Y2R2 whole entry): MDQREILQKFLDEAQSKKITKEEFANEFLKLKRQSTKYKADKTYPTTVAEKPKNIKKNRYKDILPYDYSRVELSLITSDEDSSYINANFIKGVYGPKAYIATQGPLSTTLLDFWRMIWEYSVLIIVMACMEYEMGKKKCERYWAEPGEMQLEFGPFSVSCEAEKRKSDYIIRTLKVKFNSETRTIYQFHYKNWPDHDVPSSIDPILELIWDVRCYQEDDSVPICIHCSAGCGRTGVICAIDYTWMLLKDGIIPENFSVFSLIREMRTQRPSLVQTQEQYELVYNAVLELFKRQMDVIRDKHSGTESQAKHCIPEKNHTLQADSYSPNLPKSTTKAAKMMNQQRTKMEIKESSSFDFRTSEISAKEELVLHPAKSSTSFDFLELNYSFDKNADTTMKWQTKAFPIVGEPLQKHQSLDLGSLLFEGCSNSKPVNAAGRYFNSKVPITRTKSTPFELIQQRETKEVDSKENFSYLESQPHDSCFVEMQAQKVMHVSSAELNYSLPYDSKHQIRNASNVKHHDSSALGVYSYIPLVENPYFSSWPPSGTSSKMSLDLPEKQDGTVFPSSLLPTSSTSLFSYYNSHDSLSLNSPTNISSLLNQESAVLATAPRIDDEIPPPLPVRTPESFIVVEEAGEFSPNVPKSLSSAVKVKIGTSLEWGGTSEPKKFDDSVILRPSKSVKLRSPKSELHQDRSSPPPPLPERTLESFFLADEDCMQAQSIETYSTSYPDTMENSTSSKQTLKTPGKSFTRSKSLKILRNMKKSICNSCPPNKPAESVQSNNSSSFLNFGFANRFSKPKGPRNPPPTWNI
Sequence of Induced myeloid leukemia cell differentiation protein Mcl-1 (Q07820 whole entry): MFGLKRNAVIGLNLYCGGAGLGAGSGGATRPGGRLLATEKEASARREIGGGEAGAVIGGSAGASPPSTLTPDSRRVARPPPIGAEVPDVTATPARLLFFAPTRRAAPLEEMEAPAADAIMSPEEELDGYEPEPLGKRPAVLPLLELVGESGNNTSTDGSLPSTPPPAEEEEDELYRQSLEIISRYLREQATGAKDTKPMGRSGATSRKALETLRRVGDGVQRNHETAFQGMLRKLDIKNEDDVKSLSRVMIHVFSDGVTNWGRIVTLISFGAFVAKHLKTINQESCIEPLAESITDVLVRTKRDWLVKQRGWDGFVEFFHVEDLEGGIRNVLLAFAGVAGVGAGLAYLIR
Sequence of Mu-type opioid receptor (P35372 whole entry): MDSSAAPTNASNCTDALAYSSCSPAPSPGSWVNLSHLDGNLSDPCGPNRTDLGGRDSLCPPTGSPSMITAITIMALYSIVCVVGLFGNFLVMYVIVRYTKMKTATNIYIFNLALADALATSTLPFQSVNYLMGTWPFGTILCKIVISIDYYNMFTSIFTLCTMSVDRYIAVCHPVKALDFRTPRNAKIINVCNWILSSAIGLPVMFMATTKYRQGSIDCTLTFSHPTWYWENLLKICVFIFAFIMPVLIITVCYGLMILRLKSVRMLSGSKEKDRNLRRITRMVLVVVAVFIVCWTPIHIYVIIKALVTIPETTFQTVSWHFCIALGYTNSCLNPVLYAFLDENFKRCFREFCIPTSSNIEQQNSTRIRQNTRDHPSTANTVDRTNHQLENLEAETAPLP
Sequence of Beta-galactosidase (Q8VNN2 whole entry): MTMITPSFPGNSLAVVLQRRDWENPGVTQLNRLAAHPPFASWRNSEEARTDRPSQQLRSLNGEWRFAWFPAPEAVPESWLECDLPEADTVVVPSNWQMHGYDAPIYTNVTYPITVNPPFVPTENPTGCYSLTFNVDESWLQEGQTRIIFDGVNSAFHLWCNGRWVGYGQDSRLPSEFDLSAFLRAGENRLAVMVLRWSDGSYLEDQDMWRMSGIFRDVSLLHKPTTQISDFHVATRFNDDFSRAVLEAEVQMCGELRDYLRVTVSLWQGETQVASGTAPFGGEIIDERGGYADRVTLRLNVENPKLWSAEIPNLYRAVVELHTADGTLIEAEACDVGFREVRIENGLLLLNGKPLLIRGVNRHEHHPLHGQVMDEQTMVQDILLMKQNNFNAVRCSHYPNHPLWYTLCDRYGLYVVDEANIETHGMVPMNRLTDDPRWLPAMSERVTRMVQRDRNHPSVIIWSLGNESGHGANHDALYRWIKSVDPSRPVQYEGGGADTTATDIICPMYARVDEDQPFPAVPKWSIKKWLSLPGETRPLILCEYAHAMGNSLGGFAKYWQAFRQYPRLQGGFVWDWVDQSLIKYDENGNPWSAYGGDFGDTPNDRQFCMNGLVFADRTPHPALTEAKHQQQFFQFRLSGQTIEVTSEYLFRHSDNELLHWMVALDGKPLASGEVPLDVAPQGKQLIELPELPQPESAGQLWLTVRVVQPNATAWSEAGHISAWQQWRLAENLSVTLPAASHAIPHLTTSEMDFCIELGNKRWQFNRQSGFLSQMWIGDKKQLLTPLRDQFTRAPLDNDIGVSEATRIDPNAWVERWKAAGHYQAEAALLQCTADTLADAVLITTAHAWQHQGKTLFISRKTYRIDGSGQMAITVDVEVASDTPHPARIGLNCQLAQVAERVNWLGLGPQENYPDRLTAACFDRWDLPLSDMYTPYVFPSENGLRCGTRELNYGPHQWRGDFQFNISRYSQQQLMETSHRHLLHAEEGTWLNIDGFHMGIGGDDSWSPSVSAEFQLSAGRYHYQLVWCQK
Sequence of Cystic fibrosis transmembrane conductance regulator/Golgi-associated PDZ and coiled-coil motif-containing protein (P13569 whole entry, other chains not shown): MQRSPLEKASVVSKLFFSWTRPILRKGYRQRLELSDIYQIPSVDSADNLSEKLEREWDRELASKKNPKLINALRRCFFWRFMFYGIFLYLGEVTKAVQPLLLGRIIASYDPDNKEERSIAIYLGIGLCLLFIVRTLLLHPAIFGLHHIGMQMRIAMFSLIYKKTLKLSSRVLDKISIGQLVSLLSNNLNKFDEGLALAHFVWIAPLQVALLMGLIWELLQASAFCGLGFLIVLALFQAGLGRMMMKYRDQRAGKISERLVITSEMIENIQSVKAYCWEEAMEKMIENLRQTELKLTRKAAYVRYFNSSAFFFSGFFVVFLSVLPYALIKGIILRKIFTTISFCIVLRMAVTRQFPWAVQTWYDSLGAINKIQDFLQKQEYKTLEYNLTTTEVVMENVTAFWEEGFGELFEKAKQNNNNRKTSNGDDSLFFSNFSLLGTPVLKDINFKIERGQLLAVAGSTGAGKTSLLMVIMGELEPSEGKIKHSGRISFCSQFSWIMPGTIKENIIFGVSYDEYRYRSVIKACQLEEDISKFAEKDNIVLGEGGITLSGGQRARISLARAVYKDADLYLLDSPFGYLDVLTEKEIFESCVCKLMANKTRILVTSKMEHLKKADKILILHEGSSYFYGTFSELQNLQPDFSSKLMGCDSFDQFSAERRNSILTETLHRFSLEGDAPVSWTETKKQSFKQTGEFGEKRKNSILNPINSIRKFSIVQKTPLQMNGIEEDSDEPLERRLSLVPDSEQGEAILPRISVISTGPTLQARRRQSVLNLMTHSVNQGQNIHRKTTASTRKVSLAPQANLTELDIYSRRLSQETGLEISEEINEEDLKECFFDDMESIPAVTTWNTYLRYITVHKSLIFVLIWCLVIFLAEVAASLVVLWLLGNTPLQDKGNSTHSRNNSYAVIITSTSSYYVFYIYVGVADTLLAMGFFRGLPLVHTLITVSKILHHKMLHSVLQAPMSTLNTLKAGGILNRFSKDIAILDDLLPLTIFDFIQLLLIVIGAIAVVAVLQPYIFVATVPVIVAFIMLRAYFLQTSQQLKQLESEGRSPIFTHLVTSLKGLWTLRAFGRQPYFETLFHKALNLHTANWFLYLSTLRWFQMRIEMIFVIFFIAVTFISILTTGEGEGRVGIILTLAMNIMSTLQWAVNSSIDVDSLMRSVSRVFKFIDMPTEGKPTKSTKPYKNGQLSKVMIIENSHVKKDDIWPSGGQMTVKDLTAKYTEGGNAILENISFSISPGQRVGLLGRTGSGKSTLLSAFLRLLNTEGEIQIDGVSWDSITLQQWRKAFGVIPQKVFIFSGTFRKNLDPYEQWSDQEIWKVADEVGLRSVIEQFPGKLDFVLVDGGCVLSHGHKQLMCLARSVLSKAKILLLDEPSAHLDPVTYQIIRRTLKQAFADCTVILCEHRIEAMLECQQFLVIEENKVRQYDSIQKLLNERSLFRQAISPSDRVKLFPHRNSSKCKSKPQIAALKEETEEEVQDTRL
Sequence of Delta-type opioid receptor (P41143 whole entry): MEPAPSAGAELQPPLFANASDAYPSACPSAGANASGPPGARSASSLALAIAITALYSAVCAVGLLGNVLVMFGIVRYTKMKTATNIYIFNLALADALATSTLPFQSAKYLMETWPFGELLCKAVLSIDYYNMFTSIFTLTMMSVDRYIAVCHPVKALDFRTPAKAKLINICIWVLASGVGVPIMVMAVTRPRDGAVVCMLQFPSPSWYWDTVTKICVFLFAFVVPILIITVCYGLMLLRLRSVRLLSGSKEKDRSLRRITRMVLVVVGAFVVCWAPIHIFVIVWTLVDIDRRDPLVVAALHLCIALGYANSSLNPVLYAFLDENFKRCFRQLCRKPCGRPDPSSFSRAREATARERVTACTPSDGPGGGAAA
Sequence of Eukaryotic translation initiation factor 4E (P63073 whole entry): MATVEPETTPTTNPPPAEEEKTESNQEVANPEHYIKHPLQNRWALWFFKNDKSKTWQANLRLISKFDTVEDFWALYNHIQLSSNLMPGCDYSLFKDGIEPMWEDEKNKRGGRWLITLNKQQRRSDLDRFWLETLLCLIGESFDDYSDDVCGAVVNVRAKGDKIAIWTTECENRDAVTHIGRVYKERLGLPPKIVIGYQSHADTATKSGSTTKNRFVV

As for `COCCn1/c(=N/C(=O)/C=C/c2cccs2)sc2cc(NC(C)=O)ccc21`, the “Absolute IC50 (XBP1)” value at X-box-binding protein 1 was 10 µM.

Take `Cc1ccc(S(=O)(=O)NCc2ccc(C(=O)NC3CCCN(Cc4ccccc4)C3)cc2)cc1` (stereo unspecified): the IC50 is 18.6 µM (inactive) in [1], > 32 µM (inactive) in assay [2], > 32 µM (inactive) in assay [3] and 6.75 µM (active) on Mu-type opioid receptor.

For the molecule `Cc1ccc(-c2nnc(NC(=O)C(C)Oc3ccccc3)o2)cc1C` (stereo unspecified), the EC50 in [4] was 2.6 µM (active).

`CCN(CCO)Cc1csc2ccc(C(C)(C)C)cc12`: the IC50 in [5], in [6] and in assay [7] was > 79.4 µM (inactive) each time.

Consider `CCc1ccc(S(=O)(=O)/N=C2/C=C(Sc3nc[nH]n3)C(=O)c3ccccc32)cc1`, for which the IC50 on Beta-galactosidase was > 66.6 µM (inactive); in assay [8] it was 5.9 µM (active); on Hexokinase HKDC1, 2.46 µM (active); in assay [10], > 64 µM (inactive). Besides, the AC50 in assay [9] was 23.1 µM (active); in the assay on INS1 it was 7.93 µM (active).

Take `COc1ccc(NC(=O)CSc2ccc(-c3ccco3)nn2)cc1OC`: the IC50 in [11] was 73.8 µM (active); on Hexokinase HKDC1, 13.6 µM (active); in assay [12] it was > 100 µM (inactive).

For the molecule `CCc1ccc(-c2nc(C(N)=O)c3nc(O)n(-c4ccccc4OC)c3n2)cc1`, the EC50 in assay [13] was 185 nM (active); in assay [14], 8.19 µM (active). For the same molecule, the IC50 with J774.A1 was 12.5 µM (active).

In the case of `CCc1cc[n+](-c2[n-]c(=O)sc2C=O)cc1`, the AC50 at ORF 73 was 73.5 µM (active); in the assay with Salmon testes DNA, 141 µM (active). The concentration for a half-maximal effect (EC50) in assay [15] was 11.8 µM (active); in [16] it was 16.7 µM (active).

In the case of `CCCCCOc1ccc(NC(=O)C(=O)NCCCn2ccnc2)cc1`, the IC50 in assay [17] was > 80 µM (inactive).
